Common to all, as to assay type: in vivo
One test relates to growth hormone. Kind of test: Growth hormone level by radioimmunoassay in nembutal-treated rats after subcutaneous injection. As to the method: (§1) The growth hormone activity of the compound of Example 2 was determined by injecting rats weighing about 150 g. first with nembutal intraperitoneally at a dose of 50 mg/kg then after 5 minutes injecting the rats subcutaneously with a solution of the compound of Example 2 in saline at a dose of 100 m.g. per rat. Blood samples are taken 15 minutes after injection with the compound of Example 2 and the growth hormone level determined by radioimmunoassay.
(§2) The activity of the product of Example 3 was determined by the same technique as the compound of Example 2. The dose given the test animals was 1 mg/kg. Growth hormone concentration was reduced to 28±4 ng/ml from the control level of 75±16 (p<0.01). The insulin concentration in micro units per milliliter was reduced marginally to 168±13 from the control level of 208±11 (p>0.05). The glucagon concentration in pico grams per milliliter was not effected, being 31±3 in the treated animals as opposed to 37±2 in the control animals.

The subject of another test is insulin. Kind of test: Insulin concentration in rats, same technique. The settings on record: dose 1 mg/kg, control level 208±11 (p>0.05), reduced marginally. As to the method:
as §1, §2

A further test deals with glucagon. Briefly: Glucagon concentration in rats, same technique. As to conditions: dose 1 mg/kg, control 37±2, not effected. As to the method:
as §1, §2

Where a name gives a salt, the structure may show the parent alone. Where a SMILES comes first, the peptide text is derived from it. Bridges are numbered along the chain shown (N, C = ends).

`C[C@@H](O)[C@@H]1NC(=O)[C@H](Cc2ccccc2)NC(=O)[C@H]([C@@H](C)O)NC(=O)[C@H](CCCCN)NC(=O)[C@H](Cc2c[nH]c3ccccc23)NC(=O)[C@H](Cc2ccccc2)NC(=O)[C@H](Cc2ccccc2)NC(=O)[C@H](CC(N)=O)NC(=O)[C@@H](N)CSSC[C@@H](C(=O)O)NC(=O)[C@H](CO)NC1=O` [Example 2, L-Cysteinyl-L-asparaginyl-L-phenylalanyl-L-phenylalanyl-L-tryptophyl-L-lysyl-L-threonyl-L-phenylalanyl-L-threonyl-L-seryl-L-cysteine- (1,11 cyclic disulfide), diacetate salt] (H-CNFFWKTFTSC-OH; disulfide 1-11) returned a growth hormone level in the test with growth hormone (rats about 150 g, nembutal 50 mg/kg i.p., compound s.c. in saline at 100 m.g. per rat, blood 15 minutes after injection, control 212±26 ng/ml) of 103 ± 13 ng/mL.

“N-tert-Butyloxycarbonyl-S-p-methoxybenzyl-L-cysteinyl-L-asparaginyl-L-phenylalanyl-L-phenylalanyl-D-tryptophyl-ε-2-chlorobenzyloxycarbonyl-L-lysyl-O-benzyl-L-threonyl-L-phenylalanyl-O-benzyl-L-threonyl-O-benzyl-L-seryl-S-p-methoxybenzyl-L-cysteinyl-hydroxymethyl polystyrene [Example 3]” had a Growth hormone concentration in the test on growth hormone (rats, dose 1 mg/kg, same technique, control level 75±16 (p<0.01)) of 28 ± 4 ng/mL. Besides, the insulin concentration with insulin was 168±13 micro units per milliliter. In addition, in the test on glucagon, the glucagon concentration was 31±3 pico grams per milliliter.

The values are drawn from US4011207A, “Des-(Ala^1, Gly^2,Lys^4 -Srif, Des-(Ala^1, Gly^2, Lys^4)-D-Trp^8 -Srif and intermediates” (American Home Products Corporation, priority 1976, dated 1977).
